Results on 5 compounds are retold here after patent US6083976A, “Method of synthesis of derivatives of aloesin” (Univera Pharmaceuticals, Inc., priority 1999, dated 2000).

Read-outs that look alike come from different tables or passages of the source.

Test [1] relates to tyrosinase. Particulars: cited from earlier work.
The conditions of test [2]: relative to hydroquinone; cited from earlier work.
The target in test [3] is tyrosinase. Briefly: Tyrosinase activity assay using L-DOPA as a substrate. Particulars: for IC50: L-DOPA 0.4 mM, 48 U tyrosinase, absorbance at 475 nm, read-out: average concentration for 50% tyrosinase inhibition. Format: biochemical. As to the method: Example 2 illustrates the general method for determination of tyrosinase inhibition by the alkylated aloesins, using octylaloesin for purposes of illustration.
A tyrosinase activity assay was performed using L-DOPA as a substrate. Each 750 μL assay mixture contained KH2 PO4 /K2 HPO4 at a concentration of 50 mM, L-DOPA at a concentration of 0.4 mM, 48 U of tyrosinase activity (tyrosinase obtained from SIGMA at 4,400 U/mg), and varying concentrations of the inhibitor being tested. The progress of the reaction was monitored by measuring the absorbance of the reaction mixture at 475 nm.

As for `COc1cc(/C=C/C(=O)O[C@@H]2[C@@H](O)[C@H](O)[C@@H](CO)O[C@H]2c2c(O)cc(C)c3c(=O)cc(CC(C)=O)oc23)ccc1O` [2"-O-feruloylaloesin], in the test with tyrosinase [1], the “mode of tyrosinase inhibition (Lineweaver Burk diagram)” value was “non-competitive inhibitors of tyrosinase”.

Take `O=C1O[C@H]([C@@H](O)CO)C(O)=C1O` [ascorbic acid]: in test [2], the “quantity required to achieve a similar effect, compared to the quantity of hydroquinone used” value is reported as 17 times. `OC[C@H]1O[C@@H](Oc2ccc(O)cc2)[C@H](O)[C@@H](O)[C@@H]1O` [arbutin]: the “quantity required to achieve a similar effect, compared to the quantity of hydroquinone used” value in test [2] is given as “over 100 times”. In the case of `CCCCCCCCOc1cc(C)c2c(=O)cc(CC(C)=O)oc2c1[C@@H]1O[C@H](CO)[C@@H](O)[C@H](O)[C@H]1O` [Octylaloesin], the IC50 at tyrosinase [3] came out at 107 µM. The “fold more potent as a tyrosinase inhibitor than aloesin” value in the test on tyrosinase [3] (ratio of 50% inhibition concentrations) is “approximately 2.3 fold”. In the case of `CC(=O)Cc1cc(=O)c2c(C)cc(O)c([C@@H]3O[C@H](CO)[C@@H](O)[C@H](O)[C@H]3O)c2o1` [Aloesin], the IC50 is 250 µM at tyrosinase [3] and 200 µM at tyrosinase [1] (substrate L-DOPA, read-out: concentration for 50% inhibition of tyrosinase activity). In addition, the “mode of tyrosinase inhibition (Lineweaver Burk diagram)” value in the test on tyrosinase [1] is on record as “non-competitive inhibitors of tyrosinase”.
